The values below come from US20090047243A1, “COMBINATIONS FOR THE TREATMENT OF B-CELL PROLIFERATIVE DISORDERS” (priority 2007, published 2009).

What all share (assay): Anti-proliferation assay (ATPLite, 72 h)
(ATP-based viability assays read luminescence as a measure of living cells.)

Experiment [1] concerns RPMI-8226 multiple myeloma cell line. The experiment is classed as cell-based, human. On the set-up: key: S = lnfX·lnfY·ΣIdata(Idata−ILoewe), volume over Loewe additivity. Here is the method: (§1) ANBL6 and INA-6 culture media was also supplemented with 10 ng/ml IL-6. […] MM.1S, MM.1R, OCI-ly10, Karpas 422, and SU-DHL6 cells were provided by the Dana Farber Cancer Institute. H929, RPMI-8226, GA-10, and Farage cells were from ATCC (Cat #'s CCL-155, CRL-9068, CRL-2392 and CRL-2630 respectively). MOLP-8, EJM, KSM-12-PE, and OPM2 were from DSMZ. The ANBL6 and INA-6 cell lines were provided by the M. D. Anderson Cancer Research Center. Compounds were prepared in DMSO at 1000× the highest desired concentration. Master plates were generated consisting of serially diluted compounds in 2- or 3-fold dilutions in 384-well format. For single agent dose response curves, the master plates consisted of 9 individual compounds at 12 concentrations in 2- or 3-fold dilutions. For combination matrices, master plates consisted of individual compounds at 6 or 9 concentrations at 2- or 3-fold dilutions. […] To obtain combination data, two master plates were diluted into the assay plates. […] Thirty microliters of ATPLite (Perkin Elmer) at room temperature was then added to each well. […] Measurements were taken at the top of the well using a luminescence aperture and a read time of 0.1 seconds per well. The percent inhibition (% I) for each well was calculated using the following formula: % I=[(avg. untreated wells-treated well)/(avg. untreated wells)]×100. […] Negative inhibition values result from local variations in treated wells as compared to untreated wells. […] The uncertainty of each fitted parameter was estimated from the range over which the change in reduced chi-squared was less than one, or less than minimum reduced chi-squared if that minimum exceeded one, to allow for underestimated σI errors. Single agent curve data were used to define a dilution series for each compound to be used for combination screening in a 6×6 matrix format. […] The Loewe additivity model was used to quantify combination effects. […] A “Synergy Score” was also used, where the Synergy Score S=log fX log fY ΣIdata(Idata-ILoewe), summed over all non-single-agent concentration pairs, and where log fX,Y is the natural logarithm of the dilution factors used for each single agent. This effectively calculates a volume between the measured and Loewe additive response surfaces, weighted towards high inhibition and corrected for varying dilution factors. An uncertainty σS was calculated for each synergy score, based on the measured errors for the Idata values and standard error propagation.

For experiment [2], the system named is H929 multiple myeloma cell line. The experiment is classed as cell-based, human. More on the design: key: S = lnfX·lnfY·ΣIdata(Idata−ILoewe), volume over Loewe additivity. Here is the method:
as §1

The test system of experiment [3] is human multiple myeloma cells (MM.1S). The experiment is classed as cell-based. The note with it: for inhibition at 0.256 µM / inhibition at 0.767 µM / inhibition at 2.3 µM / inhibition at 6.9 µM / inhibition at 20.7 µM: Homo sapiens, MM1.S, read-out: percent inhibition of ATP in MM.1S cells; for inhibition at 0.256 µM: Papaverine 0.256 μM; for inhibition at 0.767 µM: Papaverine 0.767 μM; for inhibition at 2.3 µM: Papaverine 2.3 μM; for inhibition at 6.9 µM: Papaverine 6.9 μM; for inhibition at 20.7 µM: Papaverine 20.7 μM. More on the design: key to synergy score / synergy (score), PDEi × HE-NECA: S = lnfX·lnfY·ΣIdata(Idata−ILoewe), volume over Loewe additivity. Here is the method:
as §1

Experiment [4] has as its system human multiple myeloma cells (MM.1R). The experiment is classed as cell-based. More on the design: key: S = lnfX·lnfY·ΣIdata(Idata−ILoewe), volume over Loewe additivity. Here is the method:
as §1

The mark [5] stands for this setting: in combination with adenosine receptor agonist ADAC, RPMI-8226.
[6] abbreviates: PDE inhibitor crossed with (S) ENBA, H929.
The mark [7] stands for this setting: PDE inhibitor crossed with ADAC, H929.
Where [8] appears, read: PDE inhibitor crossed with Chloro-IB-MECA, H929.
Where [9] appears, read: PDE inhibitor crossed with HE-NECA, H929.
The mark [10] stands for this setting: in combination with adenosine receptor agonist ADAC, H929.
Setting [11] is: 10 ng/mL IL-6, HE-NECA conc. (μM).
Setting [12] is: PDE inhibitor crossed with (S) ENBA, MM.1S.
Setting [13] is: PDE inhibitor crossed with ADAC, MM.1S.
Setting [14] is: PDE inhibitor crossed with Chloro-IB-MECA, MM.1S.
Setting [15] is: PDE inhibitor crossed with HE-NECA, MM.1S.
The mark [16] stands for this setting: in combination with adenosine receptor agonist ADAC, MM.1S.
Where [17] appears, read: in combination with adenosine receptor agonist ADAC, MM.1R.

Each structure is given as a SMILES string. Where a name gives a salt, the structure may show the parent alone. Read-outs that look alike come from different tables or passages of the source.

As a reminder, the inhibition is the relative decrease from the control value, in per cent.

`COc1ccc(Cc2nccc3cc(OC)c(OC)cc23)cc1OC` [Papaverine hydrochloride, 1-[(3.4-dimethoxyphenyl)-methyl]-6,7-dimethoxyisoquinolone]: the synergy score in experiment [1] (setting [5]) worked out at 1.158; in experiment [1] (in combination with adenosine receptor agonist HE-NECA, RPMI-8226) it was 0.3933; in experiment [2] (setting [6]), 0.77; in experiment [2] (setting [7]) it was 1.19; in experiment [2] (setting [8]), 1.42; in experiment [2] (setting [9]), 1.03. For the same compound, the synergy score came out at 1.193 in experiment [2] (setting [10]); 1.025 in experiment [2] (in combination with adenosine receptor agonist HE-NECA, H929); 2.24 in experiment [3] (setting [12]); 3.55 in experiment [3] (setting [13]); 2.67 in experiment [3] (setting [14]); 2.09 in experiment [3] (setting [15]). Also, the synergy score in experiment [3] (setting [16]) was 3.554; in experiment [3] (in combination with adenosine receptor agonist HE-NECA, MM.1S), 2.087; in experiment [4] (setting [17]) it was 3.395; in experiment [4] (in combination with adenosine receptor agonist HE-NECA, MM.1R), 2.128. Besides, the inhibition at 0.256 µM was -2.4% in experiment [3] (setting [11]) and 9.1% in experiment [3] (no IL-6, HE-NECA conc. (nM)). Moreover, the inhibition at 0.767 µM in experiment [3] (setting [11]) was -0.1%; in experiment [3] (no IL-6, HE-NECA conc. (nM)), 8.8%. Moreover, the inhibition at 2.3 µM in experiment [3] (setting [11]) was determined as 7.9%; in experiment [3] (no IL-6, HE-NECA conc. (nM)) it was 23%. Also, the inhibition at 6.9 µM was determined as 46% in experiment [3] (setting [11]) and 46% in experiment [3] (no IL-6, HE-NECA conc. (nM)). For the same compound, the inhibition at 20.7 µM in experiment [3] (setting [11]) was found to be 70%; in experiment [3] (no IL-6, HE-NECA conc. (nM)), 68%.
`OCCN(CCO)c1nc(N2CCCCC2)c2nc(N(CCO)CCO)nc(N3CCCCC3)c2n1` [Dipyridamole, 2-{[9-(bis(2-hydroxyethyl)amino)-2,7-bis(1-piperidyl)-3,5,8,10-tetrazabicyclo[4.4.0]deca-2,4,7,9,11-pentaen-4-yl]-(2-hydroxyethyl)amino}ethanol]: the synergy score was found to be 0.62 in experiment [1] (setting [5]); 0.26 in experiment [2] (setting [6]); 2.05 in experiment [2] (setting [7]); 0.08 in experiment [2] (setting [8]); 0.13 in experiment [2] (setting [9]); 2.05 in experiment [2] (setting [10]). The synergy score was 0.17 in experiment [3] (setting [12]); 1.18 in experiment [3] (setting [13]); 0.20 in experiment [3] (setting [14]); 0.08 in experiment [3] (setting [15]); 1.18 in experiment [3] (setting [16]); 1.34 in experiment [4] (setting [17]).
For `CC(C)C(=O)c1c(C(C)C)nn2ccccc12` [Ibudilast, 1-(2-isopropyl-pyrazolo[1,5-a]pyridine-3-yl)-2-methylpropan-1-one], the synergy score is recorded as 0.47 in experiment [1] (in combination with adenosine receptor agonist CGS-21680, RPMI 8226); 0.29 in experiment [1] (in combination with adenosine receptor agonist regadenoson, RPMI 8226); 0.21 in experiment [2] (setting [6]); 1.04 in experiment [2] (setting [7]); 0.32 in experiment [2] (setting [8]); 0.32 in experiment [2] (setting [9]). In addition, the synergy score in experiment [2] (in combination with adenosine receptor agonist CGS-21680, H929) was 1.76; in experiment [2] (in combination with adenosine receptor agonist regadenoson, H929), 1.08; in experiment [3] (setting [12]) it was 0.55; in experiment [3] (setting [13]), 0.23; in experiment [3] (setting [14]) it was 0.74; in experiment [3] (setting [15]), 0.98. Also, the synergy score was determined as 2.22 in experiment [3] (in combination with adenosine receptor agonist CGS-21680, MM.1S); 0.37 in experiment [3] (in combination with adenosine receptor agonist regadenoson, MM.1S); 2.29 in experiment [4] (in combination with adenosine receptor agonist CGS-21680, MM.1R); 1 in experiment [4] (in combination with adenosine receptor agonist regadenoson, MM.1R).
